In US11161824B2, “Heterocyclic lipoxin analogs and uses thereof” (University College Dublin, National University of Ireland, …, priority 2016, dated 2021):

Columns and labels:
[1] = system: carrageenan-induced paw swelling; test: Murine carrageenan-induced paw swelling; type: in vivo, C57Bl/6 mice; details: 45 ng/mouse i.p. 30 mins before intrapaw 1% carrageenan; 4-72 h
Description: CT4-43 attenuates carageenan-induced paw swelling—Mice [male C57Bl/6] were administered vehicle [0.01% EtOH] or CT4-4 [45 ng/mouse i.p] 30 mins before intrapaw injection of 1% carageenan. Paw swelling was monitored over time [4-72 h] using an external lever gauge [Kroeplin]. Data are presented as mean+/−SEM, n=3 mice/treatment group.

[2] = system: NFkB; test: LPS-induced NFkB-driven luciferase activity in THP-1 LUCIA monocytes; type: cell-based; details: for reduction of LPS-induced NFkB luciferase activity: 30 min pre-treatment, then 24 h with 50 ng/ml LPS, relative to LPS
Description: 1×10^5 THP-1 LUCIA monocytes were pre-treated for 30 min with native LXA4 1 (FIG. 1A), imidazole analogues 9 [(1R)-epimer (FIG. 1B) and (1S)-epimer (FIG. 1C)], vehicle or appropriate controls, at increasing doses ranging from 10^−12 M up to 10^−6 M. 10^8 HKLM was used as positive control for NFkB activation. After 24 h from stimulation with 50 ng/ml of LPS, supernatants were collected and NFkB-driven luciferase was measured. (d) Data are expressed as % Relative Luminescence Unit relative to LPS alone ±SEM (n=3), *=p<0.05, **=p<0.01, ***=p<0.001. Graphs display the statistical analysis of the tested compound vs LPS.
(§1) The experiments were based around a model which utilised 1×10^5/ml THP-1 monocytes stably expressing NFkB luciferase reporter gene (LUCIA).
(§2) Anti-inflammatory activity was assessed by testing 10 analogues (6 quinoxalines & 4 isoquinolines) in presence & absence of lipopolysaccharide (LPS). For each analogue, a dose-response from 10^−12 M up to 10^−6 M was performed. The vehicle control corresponded to 0.1% Ethanol. NFkB activator, Heat-Killed Listeria Monocytogenes (HKLM) (10^7 cells/ml), were used as positive control for luciferase induction. 10^−6 M Dexamethasone (Dex) was used as positive control for luciferase inhibition. […] Benzo-lipoxin A4 (BLX) was used as positive control for LXA4 analogues.
A 2-tailed, assuming unequal variance T-test analysis was performed on three independent experiments for each assay. P-values were considered significant when p<0.05. If p<0.05, then * or $; if p<0.01, then ** or $$ or ##; if p<0.001, then *** or $$$ or ###.
Cells were seeded in 96-well plates and pre-treated with increasing doses of LXA4, analogues or controls for 30 min, followed by 24 h of co-incubation with 50 ng/ml LPS. […] (*=statistical analysis vs LPS; $=statistical analysis vs LXA4)

[3] = system: Th1 cytokine release; test: LPS-induced Th1 cytokine release from THP-1 LUCIA monocytes; type: cell-based; details: 10^-11, 10^-9 or 10^-7 M; 50 ng/ml LPS 24 h; IL1β, IL6, IL12p70, IFNγ, TNF-α as per figure
Description: FIG. 2A-2E are graphs showing imidazole-lipoxin analogues (1R)-9 and (1S)-9 reduce LPS-induced Th1 cytokine release. 1×10^5 THP-1 LUCIA monocytes were pre-treated for 30 min with […], 10^−9 M or 10^−7 M of LXA4 1 and imidazole-lipoxin analogues (1R)-9 and (1S)-9, vehicle or appropriate controls. After 24 h from stimulation with 50 ng/ml of LPS, supernatants were collected and […] (FIG. 2A), IL6 (FIG. 2B), IL12p70 (FIG. 2C), IFNγ (FIG. 2D), and TNF-α (FIG. 2E) levels were measured. Data are expressed as % cytokine secretion relative to LPS alone ±SEM (n=3), *=p<0.05, **=p<0.01, ***=p<0.001.
FIG. 6A-6C are graphs showing that quinoxaline-lipoxin analogue (1R)-CT-4-43 inhibits LPS-induced Th1 cytokine release. 1×10^5 THP-1 LUCIA monocytes were pre-treated for 30 min with […], 10^−9 M or 10^−7 M of LXA4 and quinoxaline-lipoxin analogue (1R)-CT-4-43, vehicle or appropriate controls. After 24 h from stimulation with 50 ng/ml of LPS, supernatants were collected and IL13 (FIG. 6A), IL6 (FIG. 6B), and IFNγ (FIG. 6C) levels were measured. Data are expressed as % cytokine secretion relative to LPS alone ±SEM (n=3), *=p<0.05, **=p<0.01, ***=p<0.001.
FIG. 9A-9C are graphs showing that the isoquinoline-lipoxin analogue RB3 inhibit LPS-induced Th1 cytokine release. 1×10^5 THP-1 LUCIA monocytes were pre-treated for 30 min with 10^−11 M, 10^−9 M or 10^−7 M of LXA4 and isoquinoline-lipoxin analogue (1R)-RB3, vehicle or appropriate controls. After 24 h from stimulation with 50 ng/ml of LPS, supernatants were collected and IL1β(FIG. 9A), IL6 (FIG. 9B), and IL12p70 (FIG. 9C) levels were measured. Data are expressed as % cytokine secretion relative to LPS alone ±SEM (n=3), *=p<0.05, **=p<0.01, ***=p<0.001.

[4] = system: NFkB; test: NFkB-driven luciferase activity in resting conditions (absence of LPS) in THP-1 LUCIA monocytes; type: cell-based; details: 10^-12 M to 10^-6 M, 24 h
Description: 1×10^5 THP-1 LUCIA monocytes were treated for 30 min with native (a) LXA4 1, its stable imidazole-lipoxin analogues (1R)-9 and (1S)-9, vehicle or appropriate controls, at increasing doses ranging from 10^−12 M up to 10^−6 M. After 24 h, supernatants were collected and NFkB-driven luciferase was measured. Data are expressed as % Relative Luminescence Unit relative to LPS alone ±SEM (n=3).
as §1, §2

effect on LPS-induced NFkB-driven luciferase activity (in words) ([2]; doses 10^-12 M to 10^-6 M, 50 ng/ml LPS, 24 h): attenuating
potency in reducing LPS-induced NFkB activity, comparison in words ([2]; versus LXA4 or other analogues): significantly more potent than LXA4
NFkB-driven luciferase activity in resting conditions (in words) [4]: does not elicit
SMILES: CCCCC[C@@H](O)c1nc2ccccc2nc1/C=C/[C@@H](O)[C@@H](O)CCCC(=O)OC [(1R)-CT4-43, Methyl (5S,6R,E)-5,6-dihydroxy-8-(3-((R)-1-hydroxyhexyl)quinoxalin-2-yl)oct-7-enoate]
effect on carrageenan-induced paw swelling (in words) [1]: attenuates
reduction of LPS-induced NFkB luciferase activity ([2]; 1 nM): 38.2±8.2%
reduction of LPS-induced NFkB luciferase activity ([2]; 10 nM): 34.8±4.2%
effect on LPS-induced Th1 cytokine release (in words) [3]: inhibits
